The results in this text go back to a melting point compilation (Tetko et al.; mined from patent text by program, amines drawn as free bases though some values may be those of a salt).

A value given as a limit tells only on which side of the number the result lay.

The melting point is the temperature of the solid-liquid transition. For the compound `Nc1c(Cl)cc(CO)cc1Cl`, the melting point was 110 to 112 °C.
`COC(=O)C(CO)NC(=O)c1cc2cc(Cl)ccc2[nH]1` (centres undefined) returned a melting point of 153 to 155 °C.
For `CN1CCN(c2cc(N)c([N+](=O)[O-])cc2F)CC1` the value was 154 to 155 °C.
In the case of `N#Cc1ccc(NC(=O)OCc2cccnc2)cc1`, the melting point fell in the range of 205 to 207 °C.
Turning to `COc1ccc2c(SC(C)(C)C)c(C(C)C(C)(C)C(=O)O)[nH]c2c1` (centres undefined), the melting point came out at 133 °C.
For `CN1CCN(c2nnc3c4ccccc4c(Cl)cn23)CC1` the value was 150 to 153 °C; for `CCc1nc2c(N)nc3ccc(OCc4ccccc4)cc3c2n1C`, 238 to 239 °C.
`CCOC(=O)c1ccc(OCCN2CCN(c3ccc(I)nn3)CC2)cc1`: the melting point is 123 °C.
For `CC(=O)NC[C@H]1CN(c2ccc(-n3nccc3-c3cccc(Br)n3)c(F)c2)C(=O)O1` the value was 90.5 to 92.3 °C; for `CCCCCCCCCCCCCCCCCCNC(=O)OCCN1CCCC1`, 57 °C; for `O=c1cc(N2CCOCC2)cc(-c2ccc(Cl)cc2)o1`, 236 to 237 °C.
Turning to `N#Cc1ccc(OCc2ccsc2)cc1OC(C(=O)O)c1ccccc1F` (racemic), the melting point lay in the range of 159 to 161 °C.
To `COC(=O)c1ccc2c(c1)C=CC(=C(Cl)Cl)CO2` belongs 119 to 121 °C; to `CCCN(C(=O)CC)c1c(C#N)cnn1-c1ccc(OC(F)(F)F)cc1Cl`, 83 °C.
To `COC(=O)c1ccc(-c2nc3c(OC)cccc3s2)cc1` belongs 165 to 167 °C; to `Cc1cc(-c2cnn3c(C(F)(F)F)cc(-c4ccc(C(F)(F)F)c(C)c4)nc23)ccn1`, 237 °C; to `NC(=O)c1c(Cl)c(-c2ccccc2)n2c1CN(C(=O)c1ccco1)CC2`, 238 to 239 °C.
Compound `CC(C)(C)OC(=O)NCc1nc(C(=O)NNC(=O)OCc2ccccc2)cc(OCc2ccccc2)c1OCc1ccccc1` gave a melting point of 128 to 129 °C.
To `CCN(CC)C(=O)c1ccc(OCCCl)cc1` belongs 80 to 81 °C.
For the compound `CCOC(=O)C1(c2ccc(OCc3ccccc3)cc2)CC2=C(C1)C(=O)C(OC)=C(OC)C2=O`, the melting point lay within 94 to 97 °C.
In turn, `COc1ccc(Cn2cnc3c(-c4ccco4)nc(SC)nc32)cc1` came in with a melting point of 147 to 148 °C.
To `CN1C(C(=O)Nc2nc3ccccc3s2)=C(O)c2ccc3ccccc3c2S1(=O)=O` belongs 262 °C.
For `CC(Cc1ccc(-c2ncc(NC(=O)C(F)(F)F)o2)cc1)N1CC(c2cccc(Cl)c2)OC1=O` (centres undefined) the value was 163 to 164 °C.
To `CC(C)Cn1nc(-c2ccccc2)cc(COS(C)(=O)=O)c1=O` belongs 130 °C; to `CCCCCCCCCCCC(=O)NC(C)c1c[nH]c(CCCCCCCCCCC)n1` (centres undefined), 56 to 59 °C; to `COc1ccc(NC(=O)c2ccc(OC)c(C34CC5CC(CC(C5)C3)C4)c2)c(N)c1`, 211 to 213 °C.
Take `O=C(O)C(=O)c1ccc(OC/C=C/c2ccc3ccccc3c2)cc1`: the melting point lay in the range of 142 to 143 °C.
To `CC(=O)Nc1cc([N+](=O)[O-])cc([N+](=O)[O-])c1` belongs 189 to 191 °C; to `Cc1[nH]c(C(=O)Nc2ccc3[nH]ccc3c2)c(C)c1-c1nc2ccc(C(=O)c3ccccc3)cc2[nH]1`, 167 to 169 °C; to `COc1nc(OC)c(C(C)C)c(C(=O)c2cc(C)cc(C=O)c2)n1`, 111 to 113 °C.
`CCC(=O)N1CCC(COc2cccc3nc(C)c(C(=O)O)c(N)c23)CC1` registered a melting point of 168 to 170 °C.
`CCOC(=O)N(O)C(C)c1cc(C(C)(C)C)c(O)c(C(C)(C)C)c1` (centres undefined) showed a melting point of 130 to 132 °C.
For `Cc1ccccc1C(=O)P(=O)(c1ccccc1)c1ccccc1` the value was 107 °C; for `COC(=O)NC1CCc2sccc2C1` (centres undefined), 108 to 109 °C; for `OCCNc1nc(NCc2ccccc2)c2ncc(Nc3ncccn3)cc2n1`, 141 to 142 °C.
In the case of `CCNS(=O)(=O)c1ccc(N2N=C(C)C(=CNc3ccccc3OCC)C2=O)cc1`, the melting point amounted to 238 °C.
To `CS(=O)(=O)NC(=O)C1(CCCCCCCCCCCCC2(C(=O)O)CC2)CC1` belongs 97.5 to 99.4 °C; to `CCCCCS(=O)(=O)NC(=O)OCCCc1ccc(OCCOC)cc1Oc1ncc(C(F)(F)F)cc1Cl`, 97.5 to 99 °C.
Compound `COc1ccc(N=Nc2ccc(O)c(C(=O)Nc3ccc4[nH]ncc4c3)c2)cc1` yielded a melting point of 276 to 277 °C.
For `O=c1[nH]c(=O)n(Cc2ccccc2)cc1C(F)(F)F` the value was 194 to 195 °C; for `O=C(OCCCl)c1ccccc1CS(=O)(=O)Cl`, 66 to 67 °C.
To `Clc1ccc(-c2ncoc2-c2ccncc2)cc1Cl` belongs 142 °C; to `CCc1ccc(C2C(C#N)=C(CC(C)C)NC(C)=C2C(=O)OC(C)(C)C)cc1` (centres undefined), 165 to 166 °C; to `C#CCN1CC(=O)N(c2cc(Cl)ccc2C)C1=S`, 131 to 134 °C.
To `CNc1nc(C)c(C(=O)C(C#N)=CN(C)C)s1` belongs 245 to 246 °C.
For `CCc1c(C(=O)NNC(=O)C(O)c2cc(F)cc(F)c2)ccc(O)c1C` (centres undefined), the melting point was 187 °C.
For `CC(=O)NCCc1c(C(F)(F)F)nn2ccc3c(c12)CCO3` the value was 196 to 198 °C; for `CC1(C)OC(=S)Nc2ccc(-c3cccc([N+](=O)[O-])c3)cc21`, 224 to 226 °C; for `COc1nc(C)cc2nc(S(=O)(=O)Nc3nn(C)c4ccccc34)nn12`, 181 to 183 °C.
For `CC(C)n1nc(-c2cc(C(N)=O)c(Cl)nc2-c2ccccc2)ccc1=O` the value was 199 to 200 °C.
To `CC1CC(=Cc2ccccc2Cl)C(=O)O1` (centres undefined) belongs 48 °C; to `COc1ccc(C(=O)Nc2ccccc2C(C)c2ccccn2)cc1` (centres undefined), 125 to 126 °C.
For the compound `CSc1ncc(S(=O)(=O)NC(=O)NC(C)C)c(Nc2cccc(C)c2)n1`, the melting point turned out to be 160 °C.
To `CCOC(=O)c1nn(-c2ccccc2)c2c1CCCC2` belongs 102 to 103 °C; to `COc1cc(-c2ccccc2Cl)c(Cl)cc1C(=O)N1Cc2cccn2Cc2ccccc21`, 209 to 211 °C; to `COc1cc(-c2ccc(O)c(C34CC5CC(CC(C5)C3)C4)c2)cc(C=C2SC(N3CCOCC3)=NC2=O)c1O`, 310 to 312 °C.
For `CCCCCC(O)C#CCCCCCCC#Cc1ccc(O)c(O)c1` (centres undefined) the value was 46 to 48 °C; for `O=C(OCc1ccccc1)C1NN=C(c2ccc(C(F)(F)F)cc2)S1` (centres undefined), 99 to 100 °C; for `CCOC(=O)c1c(Cc2ccccc2)c2ccccc2[nH]c1=O`, 230 °C.
To `O=C(CC1=C(n2nc(-c3c(-c4ccccc4)nn4ccccc34)ccc2=O)CCCC1)N1CCOCC1` belongs 202 to 204 °C.
As to `CC(C)(C)C(NC(=O)Cc1ccc(Cl)cc1)NC(=NC#N)Nc1cccc2cnsc12` (centres undefined), the melting point lay in the range of 135 to 137 °C.
For `CCOC(=O)C1(C)CCc2ccccc2O1` (centres undefined) the value was 79 to 80 °C; for `CN1CCC(c2cccc3ccc(-n4cnc5ncccc54)cc23)CC1`, 118 to 120 °C.
In turn, `O=[N+]([O-])c1ccc(C=Cc2ccc(Cl)c(Cl)c2)cc1` registered a melting point of 190 to 191 °C.
For `Cc1ccc(N2CCN(Cc3ccc4c(c3)NC(=O)CO4)CC2)cc1C` the value was 148 to 153 °C; for `CCc1nc2c(N)nc3cc(OCc4nc5ccccc5s4)ccc3c2s1`, 211 to 212 °C; for `Cc1cccc(N2CCNC2=O)c1`, 137 to 138 °C.
Turning to `C[C@@H](c1ccccc1)n1c(O)nc2c(N)nc3cccnc3c21`, the melting point lay in the range of 241 to 243 °C.
The compound `COc1cc(C(C)C)c2c(c1)S(=O)(=O)N(COc1cc(C(F)(F)F)nn1-c1ccc([N+](=O)[O-])cc1)C2=O` showed a melting point of 185 to 187 °C.
In turn, `CCCc1nn(Cc2ccc(OCc3nc(-c4ccccc4)oc3C)cc2)cc1CCC(=O)O` yielded a melting point of 153 to 154 °C.
To `O=C(Nc1cn(C2CCCCO2)nc1C(=O)NCCC(F)(F)F)c1ccccn1` (centres undefined) belongs 144 to 145 °C; to `C=C(c1ccc(N2CCCC2)cc1)c1ccc(N2CCCC2)cc1`, 211 °C.
To `O=[N+]([O-])Nc1ccnc(Cl)c1` belongs 163 to 164 °C; to `O=[N+]([O-])c1cnccc1NCc1ccc(CO)o1`, 135 °C.
For `Cc1ccc(S(=O)(=O)n2ccc3cc(F)ccc32)cc1` the value was 106 to 108 °C; for `Cn1c(=O)c(Oc2ccccc2F)cc2cnc(S(C)(=O)=O)nc21`, 158 to 162 °C; for `C#CCNc1nc2ccc(OC(F)(F)F)cc2s1`, 138 to 140 °C.
Consider `Cc1cc(CO)c2c(N)c(C(N)=O)sc2n1`, for which the melting point was greater than 210 °C.
To `c1ccc(C(C2=NCCN2)c2ccccn2)cc1` (centres undefined) belongs 134 to 136 °C; to `CC12CCC(C(=O)O)=CC1=CCC1C2CCC2(C)C(C(=O)c3ccc(O)cc3)CCC12` (centres undefined), 295 °C; to `Cc1cc(CCCOc2c(C)cc(-c3noc(C#N)n3)cc2C)on1`, 93 to 94 °C.
For `CC1(C)Sc2cc(Cl)ccc2C2=NN(C(=O)Nc3ccc(C(F)(F)F)cc3)CC21` (centres undefined) the value was 200 to 202 °C.
For the compound `Nc1ncnc2c1c(-c1ccccc1Oc1ccccc1)cn2C1CCCC1`, the melting point lay in the range of 109 to 110 °C.
To `Cc1cc(O)n2nc(SCc3ccccc3)nc2c1` belongs 214 to 216 °C.
To `Cc1ccc(C=CC(=O)NNC(=O)C=Cc2ccc(C)cc2)cc1` belongs 307 °C.
In the case of `O=S1(=O)NC(C2CCCCC2)Nc2ccc(-c3ccccc3Cl)cc21` (centres undefined), the melting point lay in the range of 233 to 236 °C.
To `COc1cc2nc(N)nc(-c3ccc(Br)cc3)c2cc1OC` belongs 270 to 272 °C; to `C[C@H](NC(=O)OCc1ccccc1)C(=O)N[C@@H](Cc1ccccc1)C(=O)OCc1ccccc1`, 118 to 119 °C.
To `COC(=O)c1ccc2cc(CCc3cc4ccc(C(=O)OC)cc4o3)oc2c1` belongs 175 to 177 °C.
